Experimental data published in paper PMC3829422, “Conformational Plasticity and Ligand Binding of Bacterial Monoacylglycerol Lipase” (The Journal of Biological Chemistry, 2013).
Positions count from the first letter of the chain named.

What was measured:
Test in all cases: X-ray crystal structure, […] A
Format in all cases: binding
bMGL [1] = target: T1, bMGL (Bacillus sp. H-257, UniProt P82597, D196N); details: inactive variant; co-crystallised and soaked; HEPES pH 6.9; active site, chain A only; noncovalent
T1 construct: cap Asn-120-Thr-164; catalytic triad Ser-97, Asp-196, His-226
T1 sequence (P82597 1-250 D196N): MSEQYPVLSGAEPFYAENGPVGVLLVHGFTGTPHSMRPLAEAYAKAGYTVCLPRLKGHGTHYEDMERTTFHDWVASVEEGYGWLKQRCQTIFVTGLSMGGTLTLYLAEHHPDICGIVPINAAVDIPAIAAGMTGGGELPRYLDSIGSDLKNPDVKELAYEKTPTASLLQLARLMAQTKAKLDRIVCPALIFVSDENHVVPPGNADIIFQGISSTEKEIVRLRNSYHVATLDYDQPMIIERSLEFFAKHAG

bMGL [2] = target: T2, bMGL (Bacillus sp. H-257, UniProt P82597); details: covalent; Ser-97 phosphonate adduct, 4-nitrophenol released; MES/imidazole pH 6.5
T2 construct: cap Asn-120-Thr-164; catalytic triad Ser-97, Asp-196, His-226
T2 sequence (P82597 1-250): T1 sequence (P82597 1-250 D196N) with N196D

bMGL [3] = target: T2, bMGL; details: covalent; Ser-97 phosphonate adduct, 4-nitrophenol released; citric acid pH 5.2
bMGL [4] = target: T2, bMGL; details: covalent; Ser-97 phosphonate adduct, 4-nitrophenol released; citric acid pH 5.0

SMILES: CCCCCCCCCCCC(=O)OCC(O)CO (racemic) [1-LG, 1-lauroylglycerol]
- X-ray crystal structure, 2.8 A (bMGL [1]): we only interpreted the electron density of the bMGL(D196N)-1-LG crystal in chain A as substrate

SMILES: CCCCCCCCCCCCOP(=O)(CCCN=[N+]=[N-])Oc1ccc([N+](=O)[O-])cc1 (stereo not shown) [C12 ligand, dodecyl 4-nitrophenyl (3-azidopropyl)phosphonate]
- X-ray crystal structure, 1.7 A (bMGL [2]): both had the C12 ligand covalently bound in the active site

SMILES: CCCCCCCCCCCCCCOP(=O)(CCCN=[N+]=[N-])Oc1ccc([N+](=O)[O-])cc1 (stereo not shown) [C14 ligand]
- X-ray crystal structure, 1.85 A (bMGL [3]): electron densities for the ligands bound to active site residue Ser-97 were observed

SMILES: CCCCCCCCCCCCCCCCOP(=O)(CCCN=[N+]=[N-])Oc1ccc([N+](=O)[O-])cc1 (stereo not shown) [C16 ligand]
- X-ray crystal structure, 2.2 A (bMGL [4]): electron densities for the ligands bound to active site residue Ser-97 were observed
